{
  "source": "patent US20200147116A1",
  "about": "“Use of Paeoniflorin-6'-O-benzenesulfonate in treatment of Sjögren's syndrome” (NINGBO ZHIMING BIOTECHNOLOGY CO., LTD., priority 2017, published 2020)",
  "type_in_all_cases": "in vivo",
  "key": {"[1]": {"tested_on": "submaxillary glands in NOD mice", "test": "Pathological grading of submaxillary glands in NOD mice", "settings": "NOD mice", "protocol": "(§1) Mice were sacrificed after two weeks of administration, and then submaxillary glands of four mice of each group were removed and pathologically observed. At first, the submaxillary gland should be fixed in 10% buffered formalin for 24 h, followed by washing, dehydration and clearing, wax-filling, embedding, sectioning and finally H&E staining. […] Results were graded pathologically.\n(§2) Note: The histological findings graded of submaxillary glands according to the Chisholm-Mason scale; grade 0, absence of lymphocytic infiltration; grade I, slight lymphocytic infiltration; grade II, moderate lymphocytic infiltration; grade III, one focus of lymphocytic infiltration per 4 mm^2 tissue; grade IV, more than one focus of lymphocytic infiltration per 4 mm^2 tissue (Note: One focus of lymphocytic infiltration has been defined as an aggregate of 50 or more lymphocytes gathered in the labial gland stroma per 4 mm^2 of tissue."}, "[2]": {"tested_on": "NOD mice", "test": "Saliva amount in NOD mice", "settings": "NOD mice; for Saliva amount in NOD mice, Pre-administration: baseline before administration", "protocol": "Before measurement, mice were anesthetized via intraperitoneal injection of 0.05 ml of 2.4% pentobarbital sodium, and the satisfactory anesthesia was smooth breathing, corneal reflex disappearance and limb muscle relaxation. After complete anesthesia, a mouse was placed in slightly tilted trendelenburg position, and its body was kept warm using the heater. The mouse was injected intraperitoneally with 0.1 ml of 0.025 mg/ml Pilocarpine, and 5 min later, a weighed cotton ball was placed in the mouth of the mouse for 10 min. After taking the ball out, the saliva weight of mice was measured by the wet weight method.\nTherapeutic effects of on Sjögren's syndrome CP-25 in NOD mice."}, "[3]": {"tested_on": "Sjögren's syndrome model mice (C57BL/6 female mice)", "test": "Saliva amount in induced Sjögren's syndrome model mice (wet weight method after pilocarpine)", "settings": "for Saliva amount in SS mice, Pre-administration / Saliva amount, Pre-administration: baseline before administration; for Saliva amount, One week after: one week of administration; for Curative effect judged on saliva amount after one week of medication: high dose of CP-25, TGP, Pae, HCQ at the doses of Table 3", "protocol": "[…] Water intake, saliva amount and submaxillary gland pathological analysis and score were determined respectively, on the day before administration, the 7th day and 14th day after administration. The therapeutic effects of CP-25 on Sjögren's syndrome were evaluated by comparison of changes of each index before and after treatment. 2 Sjögren's syndrome model mice: C57BL/6 female mice housed in a SPF environment with successful modeling (The animal model was made via repeated multi-point intracutaneous injection of submaxillary gland homogenate of homologous mice to tail and back of mice). The animal model was made via repeated multi-point intracutaneously injection of submaxillary gland homogenate of homologous mice to tail and back of mice, and the mice with successful modeling were randomly assigned to each group according to comprehensive conditions of mice. At the same time, the average weight and status of each group of mice should be as close as possible. […] […] High dose of said pharmaceutical should be incubated for half an hour before use. Before measurement, mice were anesthetized via intraperitoneal injection of 0.05 ml of 2.4% pentobarbital sodium, and the satisfactory anesthesia was smooth breathing, corneal reflex disappearance and limb muscle relaxation. After complete anesthesia, a mouse was placed in slightly tilted trendelenburg position, and its body was kept warm using the heater. The mouse was injected intraperitoneally with 0.1 ml of 0.025 mg/ml Pilocarpine, and 5 min later, a weighed cotton ball was placed in the mouth of the mouse for 10 min. After taking the ball out, the saliva weight of mice was measured by the wet weight method."}, "[4]": {"tested_on": "submaxillary gland in SS mice", "test": "Histopathological examination and grading of submaxillary gland in SS mice (H&E, Chisholm-Mason scale)", "settings": "two weeks of administration, four mice of each group", "protocol": "as §1, §2"}, "[5]": {"tested_on": "NOD model mice", "test": "Organic indexes (spleen, submaxillary gland, thymus) in NOD model mice", "settings": "70 mg/kg"}, "[6]": {"tested_on": "SS mice", "test": "Organic indexes (spleen, submaxillary gland, thymus) in SS mice", "settings": "70 mg/kg", "description": "2 Sjögren's syndrome model mice: C57BL/6 female mice housed in a SPF environment with successful modeling (The animal model was made via repeated multi-point intracutaneous injection of submaxillary gland homogenate of homologous mice to tail and back of mice). The animal model was made via repeated multi-point intracutaneously injection of submaxillary gland homogenate of homologous mice to tail and back of mice, and the mice with successful modeling were randomly assigned to each group according to comprehensive conditions of mice. At the same time, the average weight and status of each group of mice should be as close as possible. Paeoniflorin-6′-O-benzenesulfonate, white crystalline powder, purity 98.5%, was dissolved in trace ethanol (75 mg of CP-25 was soluble in 40 μl of ethanol), and then sodium carboxymethylcellulose was added to formulate a suspension of CP-25. Corresponding dose gradient, low dose (17.5 mg/kg), medium dose (35 mg/kg) and high dose (70 mg/kg) of said pharmaceutical should be prepared before medication, stored in 4° C. refrigerator for use. High dose of said pharmaceutical should be incubated for half an hour before use."}},
  "note": "Where “and” joins values, the source holds several entries; their conditions need not be identical. Equal entries are not always repeated. Marks after values point to notes of the source that are not given here.",
  "data": [
    {"compound": "CCN(CCO)CCCC(C)Nc1ccnc2cc(Cl)ccc12", "note": "(stereo not shown) [HCQ, hydroxychloroquine, reference compound]", "values": [
      {"measurement": "Score: mice with submaxillary gland pathology Grade 0", "setting": "[1]; 80 mg/kg", "result": 0},
      {"measurement": "Score: mice with submaxillary gland pathology Grade I", "setting": "[1]; 80 mg/kg", "result": 0},
      {"measurement": "Score: mice with submaxillary gland pathology Grade II", "setting": "[1]; 80 mg/kg", "result": 0},
      {"measurement": "Score: mice with submaxillary gland pathology Grade III", "setting": "[1]; 80 mg/kg", "result": 3},
      {"measurement": "Score: mice with submaxillary gland pathology Grade IV", "setting": "[1]; 80 mg/kg", "result": "1 ^#"},
      {"measurement": "Saliva amount in NOD mice, One week after administration", "setting": "[2]; 80 mg/kg", "result": "17.00 ± 1.61", "unit": "mg/each mouse/10 min"},
      {"measurement": "Saliva amount in NOD mice, Two weeks after administration", "setting": "[2]; 80 mg/kg", "result": "17.00 ± 1.41", "unit": "mg/each mouse/10 min"},
      {"measurement": "Saliva amount in NOD mice, Pre-administration", "setting": "[2]; dose group 80 mg/kg", "result": "19.17 ± 3.18", "unit": "mg/each mouse/10 min"},
      {"measurement": "Saliva amount in SS mice, One week after administration", "setting": "[3]; Example 1, C57BL/6 SS mice, 80 mg/kg", "result": "18.17 ± 3.65", "unit": "mg/each mouse/10 min"},
      {"measurement": "Saliva amount in SS mice, Pre-administration", "setting": "[3]; Example 1, C57BL/6 SS mice, dose group 80 mg/kg", "result": "23.17 ± 2.79", "unit": "mg/each mouse/10 min"},
      {"measurement": "Saliva amount, One week after", "setting": "[3]; SS model mice, 80 mg/kg", "result": "18.17 ± 3.65", "unit": "mg/10 min"},
      {"measurement": "Saliva amount, Pre-administration", "setting": "[3]; SS model mice, dose group 80 mg/kg", "result": "23.17 ± 2.79", "unit": "mg/10 min"},
      {"measurement": "Curative effect judged on saliva amount after one week of medication", "setting": "[3]; SS model mice", "result": "did not show apparent effect"},
      {"measurement": "Score: mice with submaxillary gland pathology Grade 0", "setting": "[4]; 80 mg/kg", "result": 0},
      {"measurement": "Score: mice with submaxillary gland pathology Grade I", "setting": "[4]; 80 mg/kg", "result": 0},
      {"measurement": "Score: mice with submaxillary gland pathology Grade II", "setting": "[4]; 80 mg/kg", "result": 0},
      {"measurement": "Score: mice with submaxillary gland pathology Grade III", "setting": "[4]; 80 mg/kg", "result": 3},
      {"measurement": "Score: mice with submaxillary gland pathology Grade IV", "setting": "[4]; 80 mg/kg", "result": "1^#"}
    ]},
    {"compound": "C[C@@]12C[C@@]3(O)O[C@@H](O1)[C@]1(COC(=O)c4ccccc4)[C@H]3C[C@@]12O[C@@H]1O[C@H](CO)[C@@H](O)[C@H](O)[C@H]1O", "note": "[Pae, Paeoniflorin]", "values": [
      {"measurement": "Score: mice with submaxillary gland pathology Grade 0", "setting": "[1]; 70 mg/kg", "result": 0},
      {"measurement": "Score: mice with submaxillary gland pathology Grade I", "setting": "[1]; 70 mg/kg", "result": 0},
      {"measurement": "Score: mice with submaxillary gland pathology Grade II", "setting": "[1]; 70 mg/kg", "result": 0},
      {"measurement": "Score: mice with submaxillary gland pathology Grade III", "setting": "[1]; 70 mg/kg", "result": 1},
      {"measurement": "Score: mice with submaxillary gland pathology Grade IV", "setting": "[1]; 70 mg/kg", "result": 3},
      {"measurement": "Saliva amount in NOD mice, One week after administration", "setting": "[2]; 70 mg/kg", "result": "15.40 ± 1.62", "unit": "mg/each mouse/10 min"},
      {"measurement": "Saliva amount in NOD mice, Two weeks after administration", "setting": "[2]; 70 mg/kg", "result": "14.75 ± 1.25", "unit": "mg/each mouse/10 min"},
      {"measurement": "Saliva amount in NOD mice, Pre-administration", "setting": "[2]; dose group 70 mg/kg", "result": "19.83 ± 1.94", "unit": "mg/each mouse/10 min"},
      {"measurement": "Spleen index", "setting": "[5]", "result": "5.3 ± 0.5", "unit": "mg/g"},
      {"measurement": "Submaxillary gland index", "setting": "[5]", "result": "4.5 ± 0.5^ mg/g"},
      {"measurement": "Thymus index", "setting": "[5]", "result": "1.0 ± 0.1", "unit": "mg/g"},
      {"measurement": "Spleen index", "setting": "[6]", "result": "9.15 ± 1.44", "unit": "mg/g"},
      {"measurement": "Submaxillary gland index", "setting": "[6]", "result": "3.71 ± 0.68", "unit": "mg/g"},
      {"measurement": "Thymus index", "setting": "[6]", "result": "0.85 ± 0.23", "unit": "mg/g"},
      {"measurement": "Saliva amount in SS mice, One week after administration", "setting": "[3]; Example 1, C57BL/6 SS mice, 70 mg/kg", "result": "17.01 ± 2.10", "unit": "mg/each mouse/10 min"},
      {"measurement": "Saliva amount in SS mice, Two weeks after administration", "setting": "[3]; Example 1, C57BL/6 SS mice, 70 mg/kg, two weeks", "result": "17.17 ± 2.72^ mg/each mouse/10 min"},
      {"measurement": "Saliva amount in SS mice, Pre-administration", "setting": "[3]; Example 1, C57BL/6 SS mice, dose group 70 mg/kg", "result": "23.50 ± 2.89", "unit": "mg/each mouse/10 min"},
      {"measurement": "Saliva amount, One week after", "setting": "[3]; SS model mice, 70 mg/kg", "result": "17.01 ± 2.10", "unit": "mg/10 min"},
      {"measurement": "Saliva amount, Two weeks after", "setting": "[3]; SS model mice, 70 mg/kg, two weeks of administration", "result": "17.17 ± 2.72^ mg/10 min"},
      {"measurement": "Saliva amount, Pre-administration", "setting": "[3]; SS model mice, dose group 70 mg/kg", "result": "23.50 ± 2.89", "unit": "mg/10 min"},
      {"measurement": "Curative effect judged on saliva amount after one week of medication", "setting": "[3]; SS model mice", "result": "did not show apparent effect"},
      {"measurement": "Score: mice with submaxillary gland pathology Grade 0", "setting": "[4]; 70 mg/kg", "result": 0},
      {"measurement": "Score: mice with submaxillary gland pathology Grade I", "setting": "[4]; 70 mg/kg", "result": 0},
      {"measurement": "Score: mice with submaxillary gland pathology Grade II", "setting": "[4]; 70 mg/kg", "result": 0},
      {"measurement": "Score: mice with submaxillary gland pathology Grade III", "setting": "[4]; 70 mg/kg, 70 mg/kg", "result": "2 and 1"}
    ]}
  ]
}
